Laboratory results as given in publication PMC7827406, “Structure–Activity Relationship (SAR) Study of Spautin-1 to Entail the Discovery of Novel NEK4 Inhibitors” (International Journal of Molecular Sciences, 2021).
Where two headings read alike, the source gives them in different places.

Legend:
Assay in all cases: biochemical
Design in all cases: Eurofins KinaseProfiler full panel at Km ATP, residual kinase activity (%) relative to DMSO
Axl(h) = molecular target: T1, Axl(h) (Homo sapiens, UniProt P30530)
T1 sequence (P30530 1-894): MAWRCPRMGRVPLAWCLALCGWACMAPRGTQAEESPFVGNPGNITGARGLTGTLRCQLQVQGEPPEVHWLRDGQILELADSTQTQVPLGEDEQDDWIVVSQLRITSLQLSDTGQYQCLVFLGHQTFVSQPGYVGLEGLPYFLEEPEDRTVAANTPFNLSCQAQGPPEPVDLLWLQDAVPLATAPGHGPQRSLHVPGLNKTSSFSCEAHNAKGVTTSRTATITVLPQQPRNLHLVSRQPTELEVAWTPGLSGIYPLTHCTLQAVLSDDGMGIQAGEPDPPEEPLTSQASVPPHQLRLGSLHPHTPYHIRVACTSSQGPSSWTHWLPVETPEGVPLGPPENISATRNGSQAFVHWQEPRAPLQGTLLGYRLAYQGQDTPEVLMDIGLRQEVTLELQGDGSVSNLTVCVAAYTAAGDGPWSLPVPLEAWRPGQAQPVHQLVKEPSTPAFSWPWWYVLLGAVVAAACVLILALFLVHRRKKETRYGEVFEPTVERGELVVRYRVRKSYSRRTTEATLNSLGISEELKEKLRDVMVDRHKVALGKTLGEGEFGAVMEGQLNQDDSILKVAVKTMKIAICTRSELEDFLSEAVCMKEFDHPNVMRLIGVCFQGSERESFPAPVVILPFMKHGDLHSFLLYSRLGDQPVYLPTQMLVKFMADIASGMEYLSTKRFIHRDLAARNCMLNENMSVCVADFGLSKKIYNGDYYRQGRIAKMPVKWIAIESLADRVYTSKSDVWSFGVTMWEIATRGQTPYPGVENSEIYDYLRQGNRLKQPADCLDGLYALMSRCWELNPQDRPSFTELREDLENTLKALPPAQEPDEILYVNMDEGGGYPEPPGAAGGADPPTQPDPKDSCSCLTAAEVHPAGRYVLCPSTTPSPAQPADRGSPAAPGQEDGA
In short: (§1)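 Two 10 µM single-concentration screens were run: a competition-binding screen, in which DNA-tagged kinase bound to immobilized ligands was quantified by qPCR, and a radiometric activity panel at Km ATP. Each is expressed as residual kinase activity (%).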

DNA-PK(h) = molecular target: T2, DNA-PK(h) (Homo sapiens, UniProt P78527)
T2 construct: gene PRKDC
In short: as §1

MEK2(h) = molecular target: T3, MEK2(h) (Homo sapiens, UniProt P36507)
T3 construct: gene MAP2K2
In short: as §1

MLK4(h) = molecular target: T4, MLK4(h) (Homo sapiens, UniProt Q5TCX8)
T4 construct: gene MAP3K21
In short: as §1

PDHK2(h) = molecular target: T5, PDHK2(h) (Homo sapiens, UniProt Q15119)
T5 construct: gene PDK2
In short: as §1

PRAK(h) = molecular target: T6, PRAK(h) (Homo sapiens, UniProt Q8IW41)
T6 construct: gene MAPKAPK5
T6 sequence (Q8IW41 1-473): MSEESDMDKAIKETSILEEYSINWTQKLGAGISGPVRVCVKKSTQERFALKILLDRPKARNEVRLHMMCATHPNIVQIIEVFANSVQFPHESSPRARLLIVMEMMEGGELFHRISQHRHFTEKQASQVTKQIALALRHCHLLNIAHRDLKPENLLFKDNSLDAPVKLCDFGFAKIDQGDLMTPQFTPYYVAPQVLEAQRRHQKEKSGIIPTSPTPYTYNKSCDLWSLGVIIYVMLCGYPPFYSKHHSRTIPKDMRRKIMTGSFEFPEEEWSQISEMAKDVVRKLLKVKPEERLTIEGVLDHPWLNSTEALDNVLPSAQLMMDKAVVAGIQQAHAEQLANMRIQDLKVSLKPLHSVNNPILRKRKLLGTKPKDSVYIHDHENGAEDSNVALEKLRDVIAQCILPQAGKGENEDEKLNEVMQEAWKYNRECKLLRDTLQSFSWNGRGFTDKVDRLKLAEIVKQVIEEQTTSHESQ
In short: as §1

RIPK2(h) = RIPK2(h) (Homo sapiens, UniProt O43353)
In short: as §1

TTBK1(h) = TTBK1(h) (Homo sapiens, UniProt Q5TCY1)
In short: as §1

cKit(h) = molecular target: T7, cKit(h) (Homo sapiens, UniProt P10721)
T7 construct: gene KIT
In short: as §1

[1] = read-out: Residual activity (%) Spautin-1 5aa
[2] = read-out: Residual activity (%) 5as
[3] = read-out: Residual activity (%) 5at
[4] = read-out: Residual activity (%) 5ay

T2 sequence (P78527 whole entry): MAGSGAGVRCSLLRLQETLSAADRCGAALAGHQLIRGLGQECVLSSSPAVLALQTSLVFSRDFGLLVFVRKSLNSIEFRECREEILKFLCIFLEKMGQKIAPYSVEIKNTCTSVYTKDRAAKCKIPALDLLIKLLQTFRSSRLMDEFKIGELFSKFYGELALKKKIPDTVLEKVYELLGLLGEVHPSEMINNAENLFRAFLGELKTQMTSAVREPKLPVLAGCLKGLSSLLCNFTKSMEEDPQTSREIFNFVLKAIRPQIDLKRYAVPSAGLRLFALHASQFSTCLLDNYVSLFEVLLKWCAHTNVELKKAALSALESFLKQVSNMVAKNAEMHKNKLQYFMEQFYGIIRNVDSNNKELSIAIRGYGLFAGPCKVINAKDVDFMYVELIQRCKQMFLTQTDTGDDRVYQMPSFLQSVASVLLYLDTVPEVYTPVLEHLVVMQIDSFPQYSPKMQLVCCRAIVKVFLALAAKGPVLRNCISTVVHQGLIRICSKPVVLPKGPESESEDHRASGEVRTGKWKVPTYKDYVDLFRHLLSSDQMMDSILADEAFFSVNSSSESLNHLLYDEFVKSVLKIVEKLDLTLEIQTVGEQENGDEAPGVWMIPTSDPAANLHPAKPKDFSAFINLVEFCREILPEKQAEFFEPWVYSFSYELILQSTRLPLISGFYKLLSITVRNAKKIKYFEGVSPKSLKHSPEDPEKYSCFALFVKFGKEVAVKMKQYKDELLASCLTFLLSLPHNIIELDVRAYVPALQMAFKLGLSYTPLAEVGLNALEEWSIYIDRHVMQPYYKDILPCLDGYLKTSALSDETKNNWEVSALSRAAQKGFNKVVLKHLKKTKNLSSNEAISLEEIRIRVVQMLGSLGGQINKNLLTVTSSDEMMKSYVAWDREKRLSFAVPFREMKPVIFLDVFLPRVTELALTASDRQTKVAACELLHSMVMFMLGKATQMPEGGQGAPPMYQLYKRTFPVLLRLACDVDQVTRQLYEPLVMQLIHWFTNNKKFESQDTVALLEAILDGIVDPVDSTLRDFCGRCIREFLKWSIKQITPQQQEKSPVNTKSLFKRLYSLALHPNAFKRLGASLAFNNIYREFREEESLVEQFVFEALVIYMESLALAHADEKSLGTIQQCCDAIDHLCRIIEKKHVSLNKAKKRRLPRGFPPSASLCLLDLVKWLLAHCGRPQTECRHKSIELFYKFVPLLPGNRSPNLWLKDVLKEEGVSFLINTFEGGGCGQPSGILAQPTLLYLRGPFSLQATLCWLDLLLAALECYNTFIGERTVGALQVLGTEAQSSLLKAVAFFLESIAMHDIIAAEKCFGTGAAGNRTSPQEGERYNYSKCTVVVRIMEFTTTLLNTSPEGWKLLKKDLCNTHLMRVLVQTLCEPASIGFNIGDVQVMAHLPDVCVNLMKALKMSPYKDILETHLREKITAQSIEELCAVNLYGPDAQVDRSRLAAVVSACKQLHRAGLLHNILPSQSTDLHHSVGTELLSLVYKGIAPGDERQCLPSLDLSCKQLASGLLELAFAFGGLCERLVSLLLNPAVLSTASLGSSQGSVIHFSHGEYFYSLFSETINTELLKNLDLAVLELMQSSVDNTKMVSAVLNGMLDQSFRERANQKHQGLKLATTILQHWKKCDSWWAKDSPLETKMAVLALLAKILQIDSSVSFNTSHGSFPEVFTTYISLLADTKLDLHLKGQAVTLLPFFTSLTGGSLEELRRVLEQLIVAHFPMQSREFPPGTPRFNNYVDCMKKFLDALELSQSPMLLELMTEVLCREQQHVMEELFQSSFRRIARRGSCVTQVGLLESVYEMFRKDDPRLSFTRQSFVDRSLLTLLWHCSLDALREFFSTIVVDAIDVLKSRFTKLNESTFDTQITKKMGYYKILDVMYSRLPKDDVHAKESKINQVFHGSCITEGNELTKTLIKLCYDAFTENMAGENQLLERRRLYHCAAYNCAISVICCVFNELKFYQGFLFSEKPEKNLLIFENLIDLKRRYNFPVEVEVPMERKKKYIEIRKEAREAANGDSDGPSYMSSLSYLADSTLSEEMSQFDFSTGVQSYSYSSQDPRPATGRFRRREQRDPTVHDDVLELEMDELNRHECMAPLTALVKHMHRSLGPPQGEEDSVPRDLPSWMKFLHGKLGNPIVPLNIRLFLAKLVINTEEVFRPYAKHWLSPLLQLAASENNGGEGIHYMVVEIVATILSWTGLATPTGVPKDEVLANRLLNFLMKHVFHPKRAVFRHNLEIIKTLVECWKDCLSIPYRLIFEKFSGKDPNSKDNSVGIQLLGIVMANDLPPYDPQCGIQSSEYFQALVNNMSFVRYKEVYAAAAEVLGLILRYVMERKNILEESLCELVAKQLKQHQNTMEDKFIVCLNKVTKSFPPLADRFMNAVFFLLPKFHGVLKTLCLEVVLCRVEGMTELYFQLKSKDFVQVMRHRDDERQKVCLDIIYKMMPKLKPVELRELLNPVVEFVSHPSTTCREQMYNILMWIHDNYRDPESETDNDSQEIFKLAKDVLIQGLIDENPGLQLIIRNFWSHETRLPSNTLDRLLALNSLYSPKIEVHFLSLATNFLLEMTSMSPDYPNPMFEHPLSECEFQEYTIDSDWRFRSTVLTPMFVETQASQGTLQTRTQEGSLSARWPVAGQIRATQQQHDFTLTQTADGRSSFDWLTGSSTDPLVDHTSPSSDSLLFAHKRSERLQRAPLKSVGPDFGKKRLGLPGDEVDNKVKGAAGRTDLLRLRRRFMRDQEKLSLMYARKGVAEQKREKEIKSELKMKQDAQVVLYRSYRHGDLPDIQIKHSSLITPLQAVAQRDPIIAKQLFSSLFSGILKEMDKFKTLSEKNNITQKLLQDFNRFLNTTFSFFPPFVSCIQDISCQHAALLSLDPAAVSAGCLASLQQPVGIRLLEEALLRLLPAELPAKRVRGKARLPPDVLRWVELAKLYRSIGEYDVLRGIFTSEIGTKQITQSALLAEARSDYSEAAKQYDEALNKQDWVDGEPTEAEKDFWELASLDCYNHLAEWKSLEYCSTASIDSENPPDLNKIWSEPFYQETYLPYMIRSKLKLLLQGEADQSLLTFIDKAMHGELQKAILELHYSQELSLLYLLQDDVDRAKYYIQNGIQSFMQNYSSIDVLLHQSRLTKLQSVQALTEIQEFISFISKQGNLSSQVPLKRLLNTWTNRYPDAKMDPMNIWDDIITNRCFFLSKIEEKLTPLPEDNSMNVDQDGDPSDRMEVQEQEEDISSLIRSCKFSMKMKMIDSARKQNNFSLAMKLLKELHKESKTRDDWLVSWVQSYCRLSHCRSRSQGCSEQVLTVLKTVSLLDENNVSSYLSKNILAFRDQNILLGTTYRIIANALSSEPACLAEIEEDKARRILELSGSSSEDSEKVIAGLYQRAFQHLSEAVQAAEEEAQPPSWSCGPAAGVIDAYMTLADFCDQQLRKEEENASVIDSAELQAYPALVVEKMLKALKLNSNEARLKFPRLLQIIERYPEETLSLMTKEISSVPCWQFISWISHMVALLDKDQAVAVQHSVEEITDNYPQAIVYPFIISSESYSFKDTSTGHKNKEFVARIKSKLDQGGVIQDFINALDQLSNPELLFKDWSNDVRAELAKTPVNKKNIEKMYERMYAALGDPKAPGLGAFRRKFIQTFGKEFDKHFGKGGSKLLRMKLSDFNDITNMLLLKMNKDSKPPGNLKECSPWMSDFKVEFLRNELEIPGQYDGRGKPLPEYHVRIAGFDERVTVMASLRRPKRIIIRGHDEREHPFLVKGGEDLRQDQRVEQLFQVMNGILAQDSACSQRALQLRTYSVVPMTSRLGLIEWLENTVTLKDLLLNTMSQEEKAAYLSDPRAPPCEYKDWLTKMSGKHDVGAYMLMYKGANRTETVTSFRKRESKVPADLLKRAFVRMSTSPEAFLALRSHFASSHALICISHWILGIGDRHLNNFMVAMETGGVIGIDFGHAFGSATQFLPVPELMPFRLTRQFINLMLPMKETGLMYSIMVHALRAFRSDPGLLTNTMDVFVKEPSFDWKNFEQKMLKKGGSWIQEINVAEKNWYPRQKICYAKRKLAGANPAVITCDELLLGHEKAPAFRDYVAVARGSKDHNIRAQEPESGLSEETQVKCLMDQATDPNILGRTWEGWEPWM
T3 sequence (P36507 whole entry): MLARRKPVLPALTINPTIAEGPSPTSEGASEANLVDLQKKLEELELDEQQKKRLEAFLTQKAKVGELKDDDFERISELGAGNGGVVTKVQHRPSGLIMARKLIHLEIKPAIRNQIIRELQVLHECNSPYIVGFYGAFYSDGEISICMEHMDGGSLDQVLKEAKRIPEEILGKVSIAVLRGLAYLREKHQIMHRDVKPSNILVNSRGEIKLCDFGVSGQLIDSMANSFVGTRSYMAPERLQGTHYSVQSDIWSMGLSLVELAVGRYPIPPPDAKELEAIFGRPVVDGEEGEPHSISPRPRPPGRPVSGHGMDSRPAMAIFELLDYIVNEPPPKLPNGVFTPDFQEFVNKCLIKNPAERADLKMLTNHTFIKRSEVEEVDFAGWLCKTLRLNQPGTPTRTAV
Chain of RIPK2(h) (O43353 whole entry): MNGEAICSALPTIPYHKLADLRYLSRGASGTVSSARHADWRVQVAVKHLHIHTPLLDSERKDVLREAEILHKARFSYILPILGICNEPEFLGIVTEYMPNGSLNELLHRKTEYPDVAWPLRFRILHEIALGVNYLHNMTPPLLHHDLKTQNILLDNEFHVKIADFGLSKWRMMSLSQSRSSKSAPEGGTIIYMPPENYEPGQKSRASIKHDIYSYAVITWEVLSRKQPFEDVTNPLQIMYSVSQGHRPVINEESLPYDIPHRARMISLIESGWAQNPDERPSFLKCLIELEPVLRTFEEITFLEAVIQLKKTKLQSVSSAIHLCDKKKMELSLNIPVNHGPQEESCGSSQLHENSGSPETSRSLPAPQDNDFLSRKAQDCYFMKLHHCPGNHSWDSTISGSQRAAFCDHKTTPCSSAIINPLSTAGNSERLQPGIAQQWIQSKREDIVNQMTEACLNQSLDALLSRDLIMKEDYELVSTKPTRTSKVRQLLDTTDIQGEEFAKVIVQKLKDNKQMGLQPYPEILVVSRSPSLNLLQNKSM

With Fc1ccc(CNc2ncnc3ccc(F)cc23)cc1 [5aa, 6-Fluoro-N-(4-fluorobenzyl)-4-Quinazolinamine] the remaining activity at 10 µM (Axl(h); [1]) was 62%, the remaining activity at 10 µM (DNA-PK(h); [1]) was 89% and the remaining activity at 10 µM (MEK2(h); [1]) was 92%. The remaining activity at 10 µM (MLK4(h); [1]) was 105%, the remaining activity at 10 µM (PDHK2(h); [1]) was 103% and the remaining activity at 10 µM (PRAK(h); [1]) was 107%. It also gave a remaining activity at 10 µM (RIPK2(h); [1]) of 82%, a remaining activity at 10 µM (TTBK1(h); [1]) of 119% and a remaining activity at 10 µM (cKit(h); [1]) of 93%.
Fc1ccc(CCNc2ncnc3ccc(F)cc23)cc1 [5as, 6-Fluoro-N-[2-(4-Fluorophenyl)Ethyl]-4-Quinazolinamine] showed a remaining activity at 10 µM (Axl(h); [2]) of 90%, a remaining activity at 10 µM (DNA-PK(h); [2]) of 74% and a remaining activity at 10 µM (MEK2(h); [2]) of 96%. It also gave a remaining activity at 10 µM (MLK4(h); [2]) of 93%, a remaining activity at 10 µM (PDHK2(h); [2]) of 93% and a remaining activity at 10 µM (PRAK(h); [2]) of 108%. The remaining activity at 10 µM (RIPK2(h); [2]) was 86%, the remaining activity at 10 µM (TTBK1(h); [2]) was 104% and the remaining activity at 10 µM (cKit(h); [2]) was 78%.
With Fc1ccc2ncnc(NCCc3ccc(Cl)cc3)c2c1 [5at, N-[2-(4-Chlorophenyl)Ethyl]-6-Fluoro-4-Quinazolinamine] the remaining activity at 10 µM (Axl(h); [3]) was 75%, the remaining activity at 10 µM (DNA-PK(h); [3]) was 85% and the remaining activity at 10 µM (MEK2(h); [3]) was 99%. The remaining activity at 10 µM (MLK4(h); [3]) was 94%, the remaining activity at 10 µM (PDHK2(h); [3]) was 87% and the remaining activity at 10 µM (PRAK(h); [3]) was 91%. The remaining activity at 10 µM (RIPK2(h); [3]) was 86%, the remaining activity at 10 µM (TTBK1(h); [3]) was 114% and the remaining activity at 10 µM (cKit(h); [3]) was 71%.
With COc1ccc2ncnc(Nc3cccc(F)c3)c2c1 [5ay, N-(3-Fluorophenyl)-6-Methoxy-4-Quinazolinamine] the remaining activity at 10 µM (Axl(h); [4]) was 64%, the remaining activity at 10 µM (DNA-PK(h); [4]) was 72% and the remaining activity at 10 µM (MEK2(h); [4]) was 95%. It also gave a remaining activity at 10 µM (MLK4(h); [4]) of 91%, a remaining activity at 10 µM (PDHK2(h); [4]) of 94% and a remaining activity at 10 µM (PRAK(h); [4]) of 102%. For the same compound, the remaining activity at 10 µM (RIPK2(h); [4]) was 22%, the remaining activity at 10 µM (TTBK1(h); [4]) was 112% and the remaining activity at 10 µM (cKit(h); [4]) was 83%.
